Test results from the NIST ThermoML archive (doi:10.1016/j.jct.2013.01.013).
Numbers after ± are expanded uncertainties.

Experiment: xn = mol fraction of the nth substance listed
Conditions: 101 kPa, Liquid; for viscosity: Capillary tube (Ostwald / Ubbelohde) method; for speed of sound: Linear variable-path acoustic interferometer; for mass density: Pycnometric method

C=C(C)C(=O)OC [methyl methacrylate] + CC(=O)N(C)C
Conditions | mass density [kg/m3] | speed of sound [m/s] | viscosity [mPa·s]
288.15 K, x1 = 0.0714 | 946.01 ± 0.27 | 1484.2 ± 1.6 | 1.103 ± 0.0091
288.15 K, x1 = 0.144 | 946.49 ± 0.27 | 1468.6 ± 1.6 | 1.057 ± 0.0087
288.15 K, x1 = 0.2125 | 946.92 ± 0.27 | 1452.9 ± 1.6 | 1.016 ± 0.0084
288.15 K, x1 = 0.2823 | 947.31 ± 0.27 | 1435.8 ± 1.6 | 0.9751 ± 0.0081
288.15 K, x1 = 0.3568 | 947.69 ± 0.27 | 1416.2 ± 1.6 | 0.9339 ± 0.0078
288.15 K, x1 = 0.4318 | 948.02 ± 0.27 | 1394.9 ± 1.5 | 0.8939 ± 0.0075
288.15 K, x1 = 0.5046 | 948.31 ± 0.26 | 1372.8 ± 1.5 | 0.856 ± 0.0072
288.15 K, x1 = 0.5769 | 948.54 ± 0.26 | 1349.9 ± 1.5 | 0.8196 ± 0.007
288.15 K, x1 = 0.6512 | 948.73 ± 0.26 | 1325.5 ± 1.5 | 0.7835 ± 0.0067
288.15 K, x1 = 0.7205 | 948.88 ± 0.26 | 1302.7 ± 1.5 | 0.7513 ± 0.0064
288.15 K, x1 = 0.7845 | 948.97 ± 0.26 | 1282.2 ± 1.4 | 0.7228 ± 0.0062
288.15 K, x1 = 0.8558 | 949.03 ± 0.26 | 1259.7 ± 1.4 | 0.6927 ± 0.006
288.15 K, x1 = 0.9281 | 949.07 ± 0.26 | 1237.5 ± 1.4 | 0.6628 ± 0.0058
288.15 K, x1 = 1 | 949.1 ± 0.26 | 1216.8 ± 1.4 | 0.634 ± 0.0056
293.15 K, x1 = 0.0714 | 941.45 ± 0.26 | 1467.3 ± 1.6 | 0.9972 ± 0.0083
293.15 K, x1 = 0.144 | 941.87 ± 0.26 | 1452.1 ± 1.6 | 0.957 ± 0.008
293.15 K, x1 = 0.2125 | 942.23 ± 0.26 | 1436.6 ± 1.6 | 0.9207 ± 0.0077
293.15 K, x1 = 0.2823 | 942.55 ± 0.26 | 1419.2 ± 1.6 | 0.8852 ± 0.0075
293.15 K, x1 = 0.3568 | 942.84 ± 0.25 | 1399.5 ± 1.5 | 0.8487 ± 0.0072
293.15 K, x1 = 0.4318 | 943.08 ± 0.25 | 1378.3 ± 1.5 | 0.8137 ± 0.0069
293.15 K, x1 = 0.5046 | 943.28 ± 0.25 | 1356.3 ± 1.5 | 0.7808 ± 0.0067
293.15 K, x1 = 0.5769 | 943.43 ± 0.25 | 1333.1 ± 1.5 | 0.7494 ± 0.0064
293.15 K, x1 = 0.6512 | 943.52 ± 0.25 | 1308.9 ± 1.5 | 0.7183 ± 0.0062
293.15 K, x1 = 0.7205 | 943.58 ± 0.25 | 1286.3 ± 1.5 | 0.691 ± 0.006
293.15 K, x1 = 0.7845 | 943.59 ± 0.25 | 1266 ± 1.4 | 0.6666 ± 0.0058
293.15 K, x1 = 0.8558 | 943.54 ± 0.25 | 1243.5 ± 1.4 | 0.6409 ± 0.0056
293.15 K, x1 = 0.9281 | 943.46 ± 0.25 | 1221.3 ± 1.4 | 0.6153 ± 0.0054
293.15 K, x1 = 1 | 943.37 ± 0.25 | 1200.5 ± 1.4 | 0.5903 ± 0.0053
298.15 K, x1 = 0.0714 | 936.89 ± 0.27 | 1448.2 ± 1.6 | 0.9087 ± 0.0077
298.15 K, x1 = 0.144 | 937.25 ± 0.27 | 1433.9 ± 1.6 | 0.8736 ± 0.0074
298.15 K, x1 = 0.2125 | 937.54 ± 0.27 | 1418.5 ± 1.6 | 0.8414 ± 0.0072
298.15 K, x1 = 0.2823 | 937.79 ± 0.26 | 1400.8 ± 1.5 | 0.8102 ± 0.0069
298.15 K, x1 = 0.3568 | 937.99 ± 0.26 | 1381 ± 1.5 | 0.7782 ± 0.0067
298.15 K, x1 = 0.4318 | 938.14 ± 0.26 | 1359.8 ± 1.5 | 0.7473 ± 0.0064
298.15 K, x1 = 0.5046 | 938.25 ± 0.26 | 1338 ± 1.5 | 0.7186 ± 0.0062
298.15 K, x1 = 0.5769 | 938.31 ± 0.26 | 1315.4 ± 1.5 | 0.6915 ± 0.006
298.15 K, x1 = 0.6512 | 938.31 ± 0.26 | 1291.5 ± 1.5 | 0.665 ± 0.0058
298.15 K, x1 = 0.7205 | 938.28 ± 0.26 | 1269.3 ± 1.4 | 0.6416 ± 0.0056
298.15 K, x1 = 0.7845 | 938.21 ± 0.26 | 1248.9 ± 1.4 | 0.6207 ± 0.0055
298.15 K, x1 = 0.8558 | 938.05 ± 0.26 | 1226.9 ± 1.4 | 0.5983 ± 0.0053
298.15 K, x1 = 0.9281 | 937.85 ± 0.26 | 1204.6 ± 1.4 | 0.5763 ± 0.0052
298.15 K, x1 = 1 | 937.63 ± 0.25 | 1183.6 ± 1.4 | 0.5544 ± 0.005
303.15 K, x1 = 0.0714 | 932.33 ± 0.28 | 1429.5 ± 1.6 | 0.8475 ± 0.0072
303.15 K, x1 = 0.144 | 932.63 ± 0.28 | 1415.5 ± 1.6 | 0.8152 ± 0.007
303.15 K, x1 = 0.2125 | 932.85 ± 0.28 | 1400.7 ± 1.6 | 0.7858 ± 0.0067
303.15 K, x1 = 0.2823 | 933.03 ± 0.27 | 1383.5 ± 1.5 | 0.7573 ± 0.0065
303.15 K, x1 = 0.3568 | 933.14 ± 0.27 | 1363.9 ± 1.5 | 0.7278 ± 0.0063
303.15 K, x1 = 0.4318 | 933.2 ± 0.27 | 1342.9 ± 1.5 | 0.6995 ± 0.0061
303.15 K, x1 = 0.5046 | 933.22 ± 0.27 | 1321.2 ± 1.5 | 0.6733 ± 0.0059
303.15 K, x1 = 0.5769 | 933.19 ± 0.27 | 1298.9 ± 1.5 | 0.649 ± 0.0057
303.15 K, x1 = 0.6512 | 933.1 ± 0.27 | 1275.4 ± 1.4 | 0.6253 ± 0.0055
303.15 K, x1 = 0.7205 | 932.98 ± 0.27 | 1253.7 ± 1.4 | 0.6042 ± 0.0054
303.15 K, x1 = 0.7845 | 932.82 ± 0.27 | 1233.8 ± 1.4 | 0.5853 ± 0.0052
303.15 K, x1 = 0.8558 | 932.56 ± 0.27 | 1211.8 ± 1.4 | 0.565 ± 0.0051
303.15 K, x1 = 0.9281 | 932.24 ± 0.27 | 1189.9 ± 1.4 | 0.545 ± 0.0049
303.15 K, x1 = 1 | 931.89 ± 0.26 | 1168.5 ± 1.4 | 0.5251 ± 0.0048
308.15 K, x1 = 0.0714 | 927.77 ± 0.29 | 1409.8 ± 1.6 | 0.789 ± 0.0068
308.15 K, x1 = 0.144 | 928.01 ± 0.29 | 1396.4 ± 1.6 | 0.7601 ± 0.0066
308.15 K, x1 = 0.2125 | 928.16 ± 0.29 | 1382.1 ± 1.5 | 0.7332 ± 0.0064
308.15 K, x1 = 0.2823 | 928.26 ± 0.28 | 1365.2 ± 1.5 | 0.7071 ± 0.0062
308.15 K, x1 = 0.3568 | 928.29 ± 0.28 | 1345.7 ± 1.5 | 0.68 ± 0.006
308.15 K, x1 = 0.4318 | 928.26 ± 0.28 | 1324.8 ± 1.5 | 0.654 ± 0.0058
308.15 K, x1 = 0.5046 | 928.19 ± 0.28 | 1303.4 ± 1.5 | 0.6305 ± 0.0056
308.15 K, x1 = 0.5769 | 928.07 ± 0.28 | 1281.5 ± 1.5 | 0.6082 ± 0.0054
308.15 K, x1 = 0.6512 | 927.89 ± 0.28 | 1258.5 ± 1.4 | 0.5867 ± 0.0053
308.15 K, x1 = 0.7205 | 927.68 ± 0.28 | 1237.5 ± 1.4 | 0.5678 ± 0.0051
308.15 K, x1 = 0.7845 | 927.43 ± 0.28 | 1217.7 ± 1.4 | 0.5507 ± 0.005
308.15 K, x1 = 0.8558 | 927.07 ± 0.28 | 1196.1 ± 1.4 | 0.5325 ± 0.0048
308.15 K, x1 = 0.9281 | 926.63 ± 0.27 | 1174.2 ± 1.4 | 0.514 ± 0.0047
308.15 K, x1 = 1 | 926.15 ± 0.27 | 1152.6 ± 1.3 | 0.496 ± 0.0046
313.15 K, x1 = 0.0714 | 923.21 ± 0.3 | 1392.2 ± 1.5 | 0.743 ± 0.0064
313.15 K, x1 = 0.144 | 923.38 ± 0.3 | 1379.6 ± 1.5 | 0.7165 ± 0.0062
313.15 K, x1 = 0.2125 | 923.46 ± 0.29 | 1365.5 ± 1.5 | 0.6916 ± 0.0061
313.15 K, x1 = 0.2823 | 923.49 ± 0.29 | 1348.6 ± 1.5 | 0.6671 ± 0.0059
313.15 K, x1 = 0.3568 | 923.44 ± 0.29 | 1328.3 ± 1.5 | 0.6422 ± 0.0057
313.15 K, x1 = 0.4318 | 923.32 ± 0.29 | 1306.9 ± 1.5 | 0.6183 ± 0.0055
313.15 K, x1 = 0.5046 | 923.16 ± 0.29 | 1285.6 ± 1.5 | 0.5963 ± 0.0053
313.15 K, x1 = 0.5769 | 922.95 ± 0.29 | 1263.9 ± 1.4 | 0.5759 ± 0.0052
313.15 K, x1 = 0.6512 | 922.68 ± 0.29 | 1241.1 ± 1.4 | 0.5562 ± 0.005
313.15 K, x1 = 0.7205 | 922.38 ± 0.29 | 1220.1 ± 1.4 | 0.5387 ± 0.0049
313.15 K, x1 = 0.7845 | 922.04 ± 0.29 | 1200.9 ± 1.4 | 0.523 ± 0.0048
313.15 K, x1 = 0.8558 | 921.57 ± 0.29 | 1179 ± 1.4 | 0.506 ± 0.0047
313.15 K, x1 = 0.9281 | 921.01 ± 0.28 | 1157.2 ± 1.4 | 0.4891 ± 0.0045
313.15 K, x1 = 1 | 920.41 ± 0.28 | 1135.4 ± 1.3 | 0.4723 ± 0.0044
318.15 K, x1 = 0.0714 | 918.65 ± 0.31 | 1374.5 ± 1.5 | 0.7095 ± 0.0062
318.15 K, x1 = 0.144 | 918.75 ± 0.31 | 1362.8 ± 1.5 | 0.6842 ± 0.006
318.15 K, x1 = 0.2125 | 918.76 ± 0.3 | 1348.2 ± 1.5 | 0.6607 ± 0.0058
318.15 K, x1 = 0.2823 | 918.72 ± 0.3 | 1330.9 ± 1.5 | 0.6374 ± 0.0057
318.15 K, x1 = 0.3568 | 918.59 ± 0.3 | 1310.1 ± 1.5 | 0.6135 ± 0.0055
318.15 K, x1 = 0.4318 | 918.38 ± 0.3 | 1288.6 ± 1.5 | 0.5905 ± 0.0053
318.15 K, x1 = 0.5046 | 918.13 ± 0.3 | 1267.2 ± 1.4 | 0.5693 ± 0.0051
318.15 K, x1 = 0.5769 | 917.83 ± 0.3 | 1245.9 ± 1.4 | 0.5497 ± 0.005
318.15 K, x1 = 0.6512 | 917.47 ± 0.3 | 1223.7 ± 1.4 | 0.5307 ± 0.0048
318.15 K, x1 = 0.7205 | 917.08 ± 0.3 | 1202.8 ± 1.4 | 0.5141 ± 0.0047
318.15 K, x1 = 0.7845 | 916.65 ± 0.3 | 1184 ± 1.4 | 0.4991 ± 0.0046
318.15 K, x1 = 0.8558 | 916.07 ± 0.29 | 1162.4 ± 1.4 | 0.4828 ± 0.0045
318.15 K, x1 = 0.9281 | 915.39 ± 0.29 | 1140.2 ± 1.3 | 0.4662 ± 0.0044
318.15 K, x1 = 1 | 914.66 ± 0.29 | 1118.3 ± 1.3 | 0.4499 ± 0.0042
